Measurements taken from paper PMC9697131, “Agomelatine, Ketamine and Vortioxetine Attenuate Energy Cell Metabolism—In Vitro Study” (International Journal of Molecular Sciences, 2022).

Test system: complex II+III-linked ATP kinetics, pig brain mitochondria
Assay: Complex II+III-linked ATP kinetics, bioluminescence
Assay type: biochemical
Details: 10 μM drug; mean ± SD
Protocol: Pig brains were obtained from a slaughterhouse. Mitochondrial fraction isolation and purification from brain cortex were performed as previously described. Briefly, grey matter from pig brains was homogenized and crude mitochondrial fraction was isolated and then centrifuged on the sucrose gradient to obtain purified mitochondrial fraction. The freshly purified mitochondria were kept on ice until the assays were performed and were used for measurements of the mitochondrial oxygen consumption rate, measurements of ATP and ROS formation. Frozen mitochondria (stored at −70 °C) were used for the following enzyme activity measurements: ETC complexes, citrate synthase (CS) and malate dehydrogenase (MDH) activity.
The following protocol has been modified and optimized. An ATP Bioluminescence Assay Kit CLS II was used to measure ATP content and kinetics. The luminescence was measured using FluoroMax-3 (Jobin Yvon, Edison, NJ, USA) at 562 nm. Standard curve for ATP determination was prepared from ATP standard in the range from 0 to 600 nM. […]
For ATP kinetics determination MiR05 buffer, mitochondria and drugs were incubated on ice for 20 min and another 10 min at room temperature. Background luminescence was measured. Consequently, the same substrate mixture as mentioned above, and 230 µL of luciferase reagent were added and ATP kinetics was determined by measuring the luminescence for 4 min. […]

CNC1(c2ccccc2Cl)CCCCC1=O (stereo not shown) [ketamine]
complex II+III-linked ATP kinetics (relative to control = 100%): 84.9 ± 5.9%
